{"source": "paper PMC7217877", "about": "“N-AS-triggered SPMs are direct regulators of microglia in a model of Alzheimer’s disease” (Nature Communications, 2020)", "type_in_all_cases": "in vivo, mouse", "key": {"APP/PS1 mice [1]": {"system": "APP/PS1 mice", "assay": "RNA seq of microglia from treated mice (Fig 4f-i)", "settings": "N-AS-treated vs vehicle APP/PS1", "method": "Transgenic mouse lines over-expressing the hAPP695swe (APP) and presenilin-1M146V (PS1) mutations were originated from GlaxoSmithKline (Harlow, UK)[32] and maintained as described previously. We purchased 5×FAD mice from Jackson Labs (Stock number. 34840-JAX). Because APP/PS1 and 5xFAD mice show sex differences in disease progression, we used only male mice. To examine possible therapeutic effect of N-AS and aspirin in APP/PS1 mice, the N-AS (30 mg kg^−1, Sigma-Aldrich, 01912) was injected daily s.c. for 8 weeks to 7-months-old APP/PS1 mice until the age of 9 months, and aspirin (2 mg kg^−1, Sigma-Aldrich, A5376)[33] was administrated orally to 7-months-old APP/PS1 mice for 8 weeks. […]\nTotal RNA was isolated in microglia derived from WT, APP/PS1, and APP/PS1 mice treated with N-AS using Trizol reagent (Invitrogen). RNA quality was assessed by Agilent 2100 bioanalyzer using the RNA 6000 Nano Chip (Agilent Technologies, Amstelveen, The Netherlands), and RNA quantification was performed using ND-2000 Spectrophotometer (Thermo Inc., DE, USA). […] Quantification was performed using the library quantification kit using a StepOne Real-Time PCR System (Life Technologies, Inc., USA). […] Then, total RNA-Seq reads were mapped using TopHat software tool in order to obtain bam file (alignment file). […]"}, "APP/PS1 mice [2]": {"system": "APP/PS1 mice", "assay": "ELISA of Aβ40 and Aβ42 in cortex (Fig 6e)", "design": "Ab 40 (ELISA, Figure 6e) / Ab 42 (ELISA, Figure 6e): unit not given beside the values", "method": "For measurement of Aβ40 and Aβ42, we used commercially available ELISA kits (Invitrogen, KHB3481, and KHB3441). Cortex of mice was homogenized in buffer containing […] guanidine. ELISA was then performed for Aβ40 and Aβ42 according to the manufacturer’s instructions.\n(§1) Transgenic mouse lines over-expressing the hAPP695swe (APP) and presenilin-1M146V (PS1) mutations were originated from GlaxoSmithKline (Harlow, UK)[32] and maintained as described previously. We purchased 5×FAD mice from Jackson Labs (Stock number. 34840-JAX). Because APP/PS1 and 5xFAD mice show sex differences in disease progression, we used only male mice. To examine possible therapeutic effect of N-AS and aspirin in APP/PS1 mice, the N-AS (30 mg kg^−1, Sigma-Aldrich, 01912) was injected daily s.c. for 8 weeks to 7-months-old APP/PS1 mice until the age of 9 months, and aspirin (2 mg kg^−1, Sigma-Aldrich, A5376)[33] was administrated orally to 7-months-old APP/PS1 mice for 8 weeks. Also, to confirm possible therapeutic efficacy of N-AS in 5×FAD, the N-AS (30 mg kg^−1, Sigma-Aldrich, 01912) was injected daily s.c. for 4 weeks to 3-months-old 5×FAD mice until the age of 4 months. Block randomization method was used to allocate the animals to experimental groups. To eliminate the bias, we were blinded in experimental progress such as data collection and data analysis. Mice were housed at temperature of 22 °C and a 12 h day/12 h night cycle with free access to tap water and food pellets. All protocols were approved by the Kyungpook National University Institutional Animal Care and Use Committee."}, "APP/PS1 mice [3]": {"system": "APP/PS1 mice", "assay": "western blot of synaptophysin, MAP2, synapsin1, PSD95 in cortex (Supplementary Fig 7a-d)", "design": "synaptophysin (western blot, cortex) / MAP2 (western blot, cortex) / synapsin1 (western blot, cortex): scale not given here", "method": "Samples were lysed in RIPA buffer (Cell signaling Technologies), then subjected to SDS-PAGE and transferred to a nitrocellulose membrane. Membranes were blocked with 5% milk, incubated with primary antibody and then incubated with the appropriate horseradish peroxidase-conjugated secondary antibody. […] We performed densitometric quantification using the ImageJ software (National Institutes of Health). Images have been cropped for presentation.\nas §1"}, "APP/PS1 mice [4]": {"system": "APP/PS1 mice", "assay": "morphometric analysis of Aβ plaques by size (Supplementary Fig 5d)", "method": "Thioflavin S (Sigma-Aldrich) staining was carried out according to previously described procedures. We used 6E10 (mouse, 1:100, Signet, SIG39300), anti-20G10 (mouse, 1:1000, provided by D. R. Howlett, GlaxoSmithKline, Harlow, Essex, UK) for Aβ42, anti-G30 (rabbit, 1:1000, provided by D. R. Howlett) for Aβ40, SMA (mouse, 1:400, Sigma-Aldrich, A2547), AT8 (mouse, 1:500, Thermo Fisher Scientific, MN1020), Caspase-3 (mouse, 1:200, Novus Biologicals, NB100-56708), ac-S565 (rabbit, 1:100), COX2 (mouse, 1:250, Thermo Fisher Scientific, 35-8200), Iba1 (rabbit, 1:500, Wako, 019-19941 and goat, Abcam, ab5076), NeuN (mouse, 1:500, Millipore, MAB177), GFAP (rabbit, 1:500, Dako, N1506 and chicken, 1:500, Abcam, ab4674), and Lamp1 (mouse, 1:200, Abcam, ab24170). The sections were analyzed with a laser-scanning confocal microscope (FV3000; Olympus) or with a BX51 microscope (Olympus). MetaMorph software (Molecular Devices) was used to quantification. Three-dimensional reconstruction of microglia was recorded and analyzed using IMARIS software (Bitplane)[11]. For the analysis of age-dependent microglial COX2^+ CX3CR1^+ cells in WT and APP/PS1 mice, COX2 (rabbit, 1:100, Abcam, ab15191) and CX3CR1 (mouse, 1:100, BioLegend, 149008) antibody were used and the images were acquired on Alexa 488 and APC Channel with performed using Operetta CLS and Analysis Software 4.5 (Perkin-Elmer).\nas §1"}, "[5]": {"settings": "APP/PS1 + N-AS, individual animals"}, "[6]": {"settings": "APP/PS1 + N-AS, individual values, sFig 5d, in % (unit assumed)"}}, "note": "“And” between values parts separate entries of the source, which are not always exact repeats. Equal values may be shown once.", "data": [{"smiles": "CCCCCCCCCCCCC/C=C/[C@@H](O)[C@H](CO)NC(C)=O", "note": "[N-AS, N-((2S,3R,E)-1,3-Dihydroxyoctadec-4-en-2-yl)acetamide]", "values": [{"measurement": "microglial gene expression pattern (RNA seq)", "setting": "APP/PS1 mice [1]", "result": "upregulation of several reactive microglial genes"}, {"measurement": "Ab 40 (ELISA, Figure 6e)", "setting": "APP/PS1 mice [2]; [5]", "result": "1042.75 and 892.25 and 1044 and 676.5 and 692.5 and 668.75 and 689.75 and 1124"}, {"measurement": "Ab 42 (ELISA, Figure 6e)", "setting": "APP/PS1 mice [2]; [5]", "result": "921.303 and 908.818 and 878.061 and 828.152 and 906.333 and 894.303 and 859.97 and 905.879"}, {"measurement": "Aβ levels by ELISA of Aβ40 and Aβ42", "setting": "APP/PS1 mice [2]; N-AS vs vehicle APP/PS1", "result": "significantly lower Aβ levels"}, {"measurement": "synaptophysin (western blot, cortex)", "setting": "APP/PS1 mice [3]; APP/PS1 + N-AS, sFig 7a (sheet untitled)", "result": "2.567 and 3.1595 and 2.9069 and 1.677 and 2.527 and 2.054"}, {"measurement": "MAP2 (western blot, cortex)", "setting": "APP/PS1 mice [3]; APP/PS1 + N-AS, sFig 7b (sheet untitled)", "result": "0.7541 and 0.8231 and 0.7626 and 0.741 and 0.7343 and 0.8145"}, {"measurement": "synapsin1 (western blot, cortex)", "setting": "APP/PS1 mice [3]; APP/PS1 + N-AS, sFig 7c (sheet untitled)", "result": "0.7506 and 0.7227 and 0.685 and 0.6922 and 0.6413"}, {"measurement": "PSD95 (western blot, cortex)", "setting": "APP/PS1 mice [3]; APP/PS1 + N-AS, sFig 7d (sheet untitled)", "result": "0.7284 and 0.7208 and 0.6479 and 0.6548 and 0.6748 and 0.6067"}, {"measurement": "expression levels of synaptophysin, MAP2, synapsin1, PSD95", "setting": "APP/PS1 mice [3]; N-AS vs APP/PS1", "result": "restored"}, {"measurement": "Aβ plaques by size, 25-50mM", "setting": "APP/PS1 mice [4]; [6]", "result": "2.008 and 5.136 and 3.485 and 2.167 and 5.808 and 4.496 and 5.407 and 0.9834 and 1.041"}, {"measurement": "Aβ plaques by size, <25mM", "setting": "APP/PS1 mice [4]; [6]", "result": "96.4567 and 90.0482 and 94.697 and 95.0162 and 89.7245 and 91.9498 and 90.3491 and 98.0585 and 97.8053"}, {"measurement": "Aβ plaques by size, >50mM", "setting": "APP/PS1 mice [4]; [6]", "result": "1.535 and 4.815 and 1.818 and 2.8169 and 4.468 and 3.555 and 4.244 and 0.9581 and 1.154"}, {"measurement": "medium (25–50 μm) and large-sized (>50 μm) plaques", "setting": "APP/PS1 mice [4]; N-AS vs vehicle APP/PS1", "result": "significant reduction of medium (25–50 μm) and large-sized (>50 μm) plaques"}, {"measurement": "number of small (<25 μm) plaques", "setting": "APP/PS1 mice [4]; N-AS vs vehicle APP/PS1", "result": "significantly increased number of small (<25 μm) plaques"}]}]}
